According to ChEMBL document CHEMBL1629456, “ApoA-I mimetic peptides promote pre-β HDL formation in vivo causing remodeling of HDL and triglyceride accumulation at higher dose” (Bioorg Med Chem, 2010):

Biological target: Phospholipid-transporting ATPase ABCA1 (Mus musculus, UniProt P41233)
Assay: Induction of ABCA1-mediated [3H]cholesterol efflux in mouse RAW 264.7 macrophages after 24 hrs

Phospholipid-transporting ATPase ABCA1, sequence (P41233 whole entry): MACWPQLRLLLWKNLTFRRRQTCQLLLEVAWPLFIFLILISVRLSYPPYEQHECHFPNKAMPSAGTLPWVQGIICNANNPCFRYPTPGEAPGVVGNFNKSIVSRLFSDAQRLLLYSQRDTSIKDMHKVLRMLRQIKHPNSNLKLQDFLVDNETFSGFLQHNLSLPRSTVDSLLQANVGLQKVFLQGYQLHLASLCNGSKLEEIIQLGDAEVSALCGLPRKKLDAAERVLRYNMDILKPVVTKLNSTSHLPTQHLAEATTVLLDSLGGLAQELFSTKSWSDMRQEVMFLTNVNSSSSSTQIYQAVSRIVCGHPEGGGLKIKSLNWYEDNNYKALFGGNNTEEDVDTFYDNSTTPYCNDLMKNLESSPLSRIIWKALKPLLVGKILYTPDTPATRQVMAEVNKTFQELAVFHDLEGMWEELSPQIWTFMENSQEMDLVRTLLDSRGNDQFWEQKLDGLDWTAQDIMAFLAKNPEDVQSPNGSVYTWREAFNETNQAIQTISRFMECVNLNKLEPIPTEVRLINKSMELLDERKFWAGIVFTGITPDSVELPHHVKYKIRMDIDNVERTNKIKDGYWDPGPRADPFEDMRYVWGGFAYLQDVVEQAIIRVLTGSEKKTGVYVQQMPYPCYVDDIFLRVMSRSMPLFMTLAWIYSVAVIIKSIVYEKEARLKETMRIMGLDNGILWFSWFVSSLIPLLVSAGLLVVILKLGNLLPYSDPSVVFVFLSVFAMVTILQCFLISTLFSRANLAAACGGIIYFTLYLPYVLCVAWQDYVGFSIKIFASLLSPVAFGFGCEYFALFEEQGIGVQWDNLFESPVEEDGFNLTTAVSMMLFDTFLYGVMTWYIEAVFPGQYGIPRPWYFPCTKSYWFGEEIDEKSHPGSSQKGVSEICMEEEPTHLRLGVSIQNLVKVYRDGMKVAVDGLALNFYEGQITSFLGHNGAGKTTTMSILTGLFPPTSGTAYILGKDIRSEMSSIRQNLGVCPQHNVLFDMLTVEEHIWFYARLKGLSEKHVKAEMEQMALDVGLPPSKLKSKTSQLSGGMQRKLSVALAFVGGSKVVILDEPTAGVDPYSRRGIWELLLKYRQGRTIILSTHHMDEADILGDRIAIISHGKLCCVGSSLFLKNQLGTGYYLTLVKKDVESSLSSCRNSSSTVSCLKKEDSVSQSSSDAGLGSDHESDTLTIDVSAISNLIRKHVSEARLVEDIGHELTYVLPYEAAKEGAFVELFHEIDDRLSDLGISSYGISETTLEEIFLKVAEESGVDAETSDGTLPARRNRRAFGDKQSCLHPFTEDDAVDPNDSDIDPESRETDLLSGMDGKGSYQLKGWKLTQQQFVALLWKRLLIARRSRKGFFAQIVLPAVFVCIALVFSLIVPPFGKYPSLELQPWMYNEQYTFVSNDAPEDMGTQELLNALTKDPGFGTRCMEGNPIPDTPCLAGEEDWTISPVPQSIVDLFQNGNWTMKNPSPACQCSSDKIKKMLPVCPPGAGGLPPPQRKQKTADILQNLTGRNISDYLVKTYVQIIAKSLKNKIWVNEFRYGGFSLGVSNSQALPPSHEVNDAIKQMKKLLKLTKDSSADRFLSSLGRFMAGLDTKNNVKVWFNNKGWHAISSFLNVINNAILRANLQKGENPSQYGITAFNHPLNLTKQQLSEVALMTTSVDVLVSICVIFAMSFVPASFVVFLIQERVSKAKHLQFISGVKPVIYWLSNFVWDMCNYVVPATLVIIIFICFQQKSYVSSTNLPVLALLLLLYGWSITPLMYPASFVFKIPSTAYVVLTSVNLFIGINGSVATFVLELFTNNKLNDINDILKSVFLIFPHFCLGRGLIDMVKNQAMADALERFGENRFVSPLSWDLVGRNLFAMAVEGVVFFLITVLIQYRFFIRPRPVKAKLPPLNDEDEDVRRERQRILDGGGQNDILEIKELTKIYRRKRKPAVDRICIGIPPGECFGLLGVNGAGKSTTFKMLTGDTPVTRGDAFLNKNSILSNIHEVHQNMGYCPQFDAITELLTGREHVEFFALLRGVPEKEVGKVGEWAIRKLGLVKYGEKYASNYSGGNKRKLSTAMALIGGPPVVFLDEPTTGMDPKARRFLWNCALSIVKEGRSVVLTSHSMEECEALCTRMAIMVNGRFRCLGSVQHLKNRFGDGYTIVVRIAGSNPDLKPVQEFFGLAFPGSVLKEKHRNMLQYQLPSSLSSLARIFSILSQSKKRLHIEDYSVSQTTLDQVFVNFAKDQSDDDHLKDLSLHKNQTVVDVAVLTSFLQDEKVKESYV

EC50	Compound
> 100 µM	C=CCCCCC[C@H](NC(=O)[C@H](CCC(N)=O)NC(=O)[C@H](CCCCN)NC(=O)[C@H](CC(C)C)NC(=O)[C@H](C)NC(=O)[C@H](CCC(=O)O)NC(=O)[C@H](CC(C)C)NC(=O)[C@H](CCC(=O)O)NC(=O)[C@H](CCC(=O)O)NC(=O)[C@H](CC(N)=O)NC(=O)[C@H](CC(C)C)NC(=O)[C@H](CCCCN)NC(=O)[C@H](CCC(=O)O)NC(=O)[C@H](CCCNC(=N)N)NC(=O)[C@H](Cc1ccccc1)NC(=O)[C@H](CCC(=O)O)NC(=O)[C@H](CC(=O)O)NC(=O)[C@H](CC(C)C)NC(=O)[C@@H](NC(=O)[C@@H]1CCCN1C(C)=O)C(C)C)C(=O)N[C@@H](CC(C)C)C(=O)N[C@@H](CCCCN)C(N)=O
> 100 µM	C=CCCCCC[C@@H](NC(=O)[C@@H]1CCCN1C(C)=O)C(=O)N[C@@H](CC(C)C)C(=O)N[C@@H](CC(=O)O)C(=O)N[C@@H](CCC(=O)O)C(=O)N[C@@H](Cc1ccccc1)C(=O)N[C@@H](CCCNC(=N)N)C(=O)N[C@@H](CCC(=O)O)C(=O)N[C@@H](CCCCN)C(=O)N[C@@H](CC(C)C)C(=O)N[C@@H](CC(N)=O)C(=O)N[C@@H](CCC(=O)O)C(=O)N[C@@H](CCC(=O)O)C(=O)N[C@@H](CC(C)C)C(=O)N[C@@H](CCC(=O)O)C(=O)N[C@@H](C)C(=O)N[C@@H](CC(C)C)C(=O)N[C@@H](CCCCN)C(=O)N[C@@H](CCC(N)=O)C(=O)N[C@@H](CCCCN)C(=O)N[C@@H](CC(C)C)C(=O)N[C@@H](CCCCN)C(N)=O
> 100 µM	C=CCCCCC[C@@H](NC(=O)[C@H](CCC(=O)O)NC(=O)[C@H](CC(=O)O)NC(=O)[C@H](CC(C)C)NC(=O)[C@@H](NC(=O)[C@@H]1CCCN1C(C)=O)C(C)C)C(=O)N[C@@H](CCCNC(=N)N)C(=O)N[C@@H](CCC(=O)O)C(=O)N[C@@H](CCCCN)C(=O)N[C@@H](CC(C)C)C(=O)N[C@@H](CC(N)=O)C(=O)N[C@@H](CCC(=O)O)C(=O)N[C@@H](CCC(=O)O)C(=O)N[C@@H](CC(C)C)C(=O)N[C@@H](CCC(=O)O)C(=O)N[C@@H](C)C(=O)N[C@@H](CC(C)C)C(=O)N[C@@H](CCCCN)C(=O)N[C@@H](CCC(N)=O)C(=O)N[C@@H](CCCCN)C(=O)N[C@@H](CC(C)C)C(=O)N[C@@H](CCCCN)C(N)=O
> 100 µM	C=CCCCCC[C@@H](NC(=O)[C@H](CCC(=O)O)NC(=O)[C@H](CCCNC(=N)N)NC(=O)[C@H](Cc1ccccc1)NC(=O)[C@H](CCC(=O)O)NC(=O)[C@H](CC(=O)O)NC(=O)[C@H](CC(C)C)NC(=O)[C@@H](NC(=O)[C@@H]1CCCN1C(C)=O)C(C)C)C(=O)N[C@@H](CC(C)C)C(=O)N[C@@H](CC(N)=O)C(=O)N[C@@H](CCC(=O)O)C(=O)N[C@@H](CCC(=O)O)C(=O)N[C@@H](CC(C)C)C(=O)N[C@@H](CCC(=O)O)C(=O)N[C@@H](C)C(=O)N[C@@H](CC(C)C)C(=O)N[C@@H](CCCCN)C(=O)N[C@@H](CCC(N)=O)C(=O)N[C@@H](CCCCN)C(=O)N[C@@H](CC(C)C)C(=O)N[C@@H](CCCCN)C(N)=O
> 100 µM	C=CCCCCC[C@H](NC(=O)[C@H](C)NC(=O)[C@H](CCC(=O)O)NC(=O)[C@H](CC(C)C)NC(=O)[C@H](CCC(=O)O)NC(=O)[C@H](CCC(=O)O)NC(=O)[C@H](CC(N)=O)NC(=O)[C@H](CC(C)C)NC(=O)[C@H](CCCCN)NC(=O)[C@H](CCC(=O)O)NC(=O)[C@H](CCCNC(=N)N)NC(=O)[C@H](Cc1ccccc1)NC(=O)[C@H](CCC(=O)O)NC(=O)[C@H](CC(=O)O)NC(=O)[C@H](CC(C)C)NC(=O)[C@@H](NC(=O)[C@@H]1CCCN1C(C)=O)C(C)C)C(=O)N[C@@H](CCCCN)C(=O)N[C@@H](CCC(N)=O)C(=O)N[C@@H](CCCCN)C(=O)N[C@@H](CC(C)C)C(=O)N[C@@H](CCCCN)C(N)=O
> 100 µM	C=CCCCCC[C@@H](NC(=O)[C@H](CCCCN)NC(=O)[C@H](CCC(=O)O)NC(=O)[C@H](CCCN=C(N)N)NC(=O)[C@H](Cc1ccccc1)NC(=O)[C@H](CCC(=O)O)NC(=O)[C@H](CC(=O)O)NC(=O)[C@H](CC(C)C)NC(=O)[C@@H](NC(=O)[C@@H]1CCCN1C(C)=O)C(C)C)C(=O)N[C@@H](CC(N)=O)C(=O)N[C@@H](CCC(=O)O)C(=O)N[C@@H](CCC(=O)O)C(=O)N[C@@H](CC(C)C)C(=O)N[C@@H](CCC(=O)O)C(=O)N[C@@H](C)C(=O)N[C@@H](CC(C)C)C(=O)N[C@@H](CCCCN)C(=O)N[C@@H](CCC(N)=O)C(=O)N[C@@H](CCCCN)C(=O)N[C@@H](CC(C)C)C(=O)N[C@@H](CCCCN)C(N)=O
> 100 µM	C=CCCCCC[C@@H](NC(=O)[C@H](CCC(=O)O)NC(=O)[C@H](CCC(=O)O)NC(=O)[C@H](CC(N)=O)NC(=O)[C@H](CC(C)C)NC(=O)[C@H](CCCCN)NC(=O)[C@H](CCC(=O)O)NC(=O)[C@H](CCCN=C(N)N)NC(=O)[C@H](Cc1ccccc1)NC(=O)[C@H](CCC(=O)O)NC(=O)[C@H](CC(=O)O)NC(=O)[C@H](CC(C)C)NC(=O)[C@@H](NC(=O)[C@@H]1CCCN1C(C)=O)C(C)C)C(=O)N[C@@H](CCC(=O)O)C(=O)N[C@@H](C)C(=O)N[C@@H](CC(C)C)C(=O)N[C@@H](CCCCN)C(=O)N[C@@H](CCC(N)=O)C(=O)N[C@@H](CCCCN)C(=O)N[C@@H](CC(C)C)C(=O)N[C@@H](CCCCN)C(N)=O
> 100 µM	C=CCCCCC[C@@H](NC(=O)[C@H](C)NC(=O)[C@H](CCC(=O)O)NC(=O)[C@H](CC(C)C)NC(=O)[C@H](CCC(=O)O)NC(=O)[C@H](CCC(=O)O)NC(=O)[C@H](CC(N)=O)NC(=O)[C@H](CC(C)C)NC(=O)[C@H](CCCCN)NC(=O)[C@H](CCC(=O)O)NC(=O)[C@H](CCCN=C(N)N)NC(=O)[C@H](Cc1ccccc1)NC(=O)[C@H](CCC(=O)O)NC(=O)[C@H](CC(=O)O)NC(=O)[C@H](CC(C)C)NC(=O)[C@@H](NC(=O)[C@@H]1CCCN1C(C)=O)C(C)C)C(=O)N[C@@H](CCCCN)C(=O)N[C@@H](CCC(N)=O)C(=O)N[C@@H](CCCCN)C(=O)N[C@@H](CC(C)C)C(=O)N[C@@H](CCCCN)C(N)=O
> 100 µM	C=CCCCCC[C@@H](NC(=O)[C@H](CCC(N)=O)NC(=O)[C@H](CCCCN)NC(=O)[C@H](CC(C)C)NC(=O)[C@H](C)NC(=O)[C@H](CCC(=O)O)NC(=O)[C@H](CC(C)C)NC(=O)[C@H](CCC(=O)O)NC(=O)[C@H](CCC(=O)O)NC(=O)[C@H](CC(N)=O)NC(=O)[C@H](CC(C)C)NC(=O)[C@H](CCCCN)NC(=O)[C@H](CCC(=O)O)NC(=O)[C@H](CCCN=C(N)N)NC(=O)[C@H](Cc1ccccc1)NC(=O)[C@H](CCC(=O)O)NC(=O)[C@H](CC(=O)O)NC(=O)[C@H](CC(C)C)NC(=O)[C@@H](NC(=O)[C@@H]1CCCN1C(C)=O)C(C)C)C(=O)N[C@@H](CC(C)C)C(=O)N[C@@H](CCCCN)C(N)=O
> 100 µM	C=CCCC[C@@H](NC(=O)[C@H](CCC(=O)O)NC(=O)[C@H](CC(N)=O)NC(=O)[C@H](CC(C)C)NC(=O)[C@H](CCCCN)NC(=O)[C@H](CCC(=O)O)NC(=O)[C@H](CCCNC(=N)N)NC(=O)[C@H](Cc1ccccc1)NC(=O)[C@H](CCC(=O)O)NC(=O)[C@H](CC(=O)O)NC(=O)[C@H](CC(C)C)NC(=O)[C@@H](NC(=O)[C@@H]1CCCN1C(C)=O)C(C)C)C(=O)N[C@@H](CC(C)C)C(=O)N[C@@H](CCC(=O)O)C(=O)N[C@@H](C)C(=O)N[C@@H](CC(C)C)C(=O)N[C@@H](CCCCN)C(=O)N[C@@H](CCC(N)=O)C(=O)N[C@@H](CCCCN)C(=O)N[C@@H](CC(C)C)C(=O)N[C@@H](CCCCN)C(N)=O
> 100 µM	C=CCCCCC[C@H](NC(=O)[C@H](CCC(=O)O)NC(=O)[C@H](CC(=O)O)NC(=O)[C@H](CC(C)C)NC(=O)[C@@H](NC(=O)[C@@H]1CCCN1C(C)=O)C(C)C)C(=O)N[C@@H](CCCNC(=N)N)C(=O)N[C@@H](CCC(=O)O)C(=O)N[C@@H](CCCCN)C(=O)N[C@@H](CC(C)C)C(=O)N[C@@H](CC(N)=O)C(=O)N[C@@H](CCC(=O)O)C(=O)N[C@@H](CCC(=O)O)C(=O)N[C@@H](CC(C)C)C(=O)N[C@@H](CCC(=O)O)C(=O)N[C@@H](C)C(=O)N[C@@H](CC(C)C)C(=O)N[C@@H](CCCCN)C(=O)N[C@@H](CCC(N)=O)C(=O)N[C@@H](CCCCN)C(=O)N[C@@H](CC(C)C)C(=O)N[C@@H](CCCCN)C(N)=O
> 100 µM	C=CCCCCC[C@H](NC(=O)[C@H](CCC(=O)O)NC(=O)[C@H](CCCN=C(N)N)NC(=O)[C@H](Cc1ccccc1)NC(=O)[C@H](CCC(=O)O)NC(=O)[C@H](CC(=O)O)NC(=O)[C@H](CC(C)C)NC(=O)[C@@H](NC(=O)[C@@H]1CCCN1C(C)=O)C(C)C)C(=O)N[C@@H](CC(C)C)C(=O)N[C@@H](CC(N)=O)C(=O)N[C@@H](CCC(=O)O)C(=O)N[C@@H](CCC(=O)O)C(=O)N[C@@H](CC(C)C)C(=O)N[C@@H](CCC(=O)O)C(=O)N[C@@H](C)C(=O)N[C@@H](CC(C)C)C(=O)N[C@@H](CCCCN)C(=O)N[C@@H](CCC(N)=O)C(=O)N[C@@H](CCCCN)C(=O)N[C@@H](CC(C)C)C(=O)N[C@@H](CCCCN)C(N)=O
> 100 µM	C=CCCCCC[C@H](NC(=O)[C@H](CCCCN)NC(=O)[C@H](CCC(=O)O)NC(=O)[C@H](CCCNC(=N)N)NC(=O)[C@H](Cc1ccccc1)NC(=O)[C@H](CCC(=O)O)NC(=O)[C@H](CC(=O)O)NC(=O)[C@H](CC(C)C)NC(=O)[C@@H](NC(=O)[C@@H]1CCCN1C(C)=O)C(C)C)C(=O)N[C@@H](CC(N)=O)C(=O)N[C@@H](CCC(=O)O)C(=O)N[C@@H](CCC(=O)O)C(=O)N[C@@H](CC(C)C)C(=O)N[C@@H](CCC(=O)O)C(=O)N[C@@H](C)C(=O)N[C@@H](CC(C)C)C(=O)N[C@@H](CCCCN)C(=O)N[C@@H](CCC(N)=O)C(=O)N[C@@H](CCCCN)C(=O)N[C@@H](CC(C)C)C(=O)N[C@@H](CCCCN)C(N)=O
> 100 µM	C=CCCCCC[C@H](NC(=O)[C@H](CCC(=O)O)NC(=O)[C@H](CCC(=O)O)NC(=O)[C@H](CC(N)=O)NC(=O)[C@H](CC(C)C)NC(=O)[C@H](CCCCN)NC(=O)[C@H](CCC(=O)O)NC(=O)[C@H](CCCNC(=N)N)NC(=O)[C@H](Cc1ccccc1)NC(=O)[C@H](CCC(=O)O)NC(=O)[C@H](CC(=O)O)NC(=O)[C@H](CC(C)C)NC(=O)[C@@H](NC(=O)[C@@H]1CCCN1C(C)=O)C(C)C)C(=O)N[C@@H](CCC(=O)O)C(=O)N[C@@H](C)C(=O)N[C@@H](CC(C)C)C(=O)N[C@@H](CCCCN)C(=O)N[C@@H](CCC(N)=O)C(=O)N[C@@H](CCCCN)C(=O)N[C@@H](CC(C)C)C(=O)N[C@@H](CCCCN)C(N)=O
